# Assay results: patent publication US9095579B2 (priority 2012, dated 2015)
# Entries after “also recorded” stand apart in the source; their conditions may differ.
# Tested on: A/PR/8/34; H1N1 viruses (PR8-WT, PR8-A122V)
# Set-up: species or system C57BL/6 mice
# Details: mouse, in vivo
smiles,measurement,setting,value
CC1=C2C[C@H]3[C@@H](CC=C4C[C@@H](O)CC[C@@]43C)[C@@H]2CC[C@]12O[C@@H]1C[C@H](C)CN[C@H]1[C@H]2C [cyclopamine],protection from the effects of influenza infection,,partially protected
same,columnar organization of the airway epithelium,ip,restored a degree of columnar organization
same,epithelial damage in lung airways caused by PR8-WT and PR8-A122V,ip,reduced epithelial damage; also recorded: partially rescued; also recorded: reduces viral damage in the lung
C[C@H]1CC[C@]2(NC1)O[C@H]1C[C@H]3[C@@H]4CC[C@H]5C[C@@H](O)CC[C@]5(C)[C@H]4CC[C@]3(C)[C@H]1[C@@H]2C [tomatidine],epithelial damage in lung airways caused by PR8-WT and PR8-A122V,ip,no rescue of airway damage; also recorded: no obvious effect
